These results are taken from patent publication US20090304692A1, “TRIAZINE COMPOUNDS AS PI3 KINASE AND MTOR INHIBITORS” (Wyeth, priority 2008, published 2009).

As a reminder, the IC50 is the concentration needed to halve the response being measured.

For one experiment, the target named is Human mTOR (FLAG-TOR) (Homo sapiens, UniProt P42345). The experiment is described as follows: mTOR kinase assay (DELFIA format, purified enzyme). Type of experiment: biochemical. Conditions: read-out: IC50 mTOR.
A further experiment deals with PI3K-α (Homo sapiens, UniProt P42336). The experiment is described as follows: PI3K-alpha fluorescence polarization assay. The note with it: read-out: IC50 PI3Kα.
The target of a further experiment is PI3K-γ (Homo sapiens, UniProt P48736). The experiment is described as follows: PI3K-gamma fluorescence polarization assay. On the technique in general: Polarisation of emitted light reports the rotation of a fluorescent probe.
In experiment [1] the test system is human prostate LNCap tumor cell line. The experiment is described as follows: In vitro cell culture growth assay (MTS), LNCap. Conditions: Homo sapiens, LNCaP, 72 h, read-out: IC50 LNCap.

Values joined by “and” are separate entries in the source; they are usually repeats but may differ in a detail not shown here. Identical values can stand only once. Like-named read-outs stand apart in the source and are kept apart here.

Human mTOR (FLAG-TOR), sequence (P42345 1360-2549 limits assumed): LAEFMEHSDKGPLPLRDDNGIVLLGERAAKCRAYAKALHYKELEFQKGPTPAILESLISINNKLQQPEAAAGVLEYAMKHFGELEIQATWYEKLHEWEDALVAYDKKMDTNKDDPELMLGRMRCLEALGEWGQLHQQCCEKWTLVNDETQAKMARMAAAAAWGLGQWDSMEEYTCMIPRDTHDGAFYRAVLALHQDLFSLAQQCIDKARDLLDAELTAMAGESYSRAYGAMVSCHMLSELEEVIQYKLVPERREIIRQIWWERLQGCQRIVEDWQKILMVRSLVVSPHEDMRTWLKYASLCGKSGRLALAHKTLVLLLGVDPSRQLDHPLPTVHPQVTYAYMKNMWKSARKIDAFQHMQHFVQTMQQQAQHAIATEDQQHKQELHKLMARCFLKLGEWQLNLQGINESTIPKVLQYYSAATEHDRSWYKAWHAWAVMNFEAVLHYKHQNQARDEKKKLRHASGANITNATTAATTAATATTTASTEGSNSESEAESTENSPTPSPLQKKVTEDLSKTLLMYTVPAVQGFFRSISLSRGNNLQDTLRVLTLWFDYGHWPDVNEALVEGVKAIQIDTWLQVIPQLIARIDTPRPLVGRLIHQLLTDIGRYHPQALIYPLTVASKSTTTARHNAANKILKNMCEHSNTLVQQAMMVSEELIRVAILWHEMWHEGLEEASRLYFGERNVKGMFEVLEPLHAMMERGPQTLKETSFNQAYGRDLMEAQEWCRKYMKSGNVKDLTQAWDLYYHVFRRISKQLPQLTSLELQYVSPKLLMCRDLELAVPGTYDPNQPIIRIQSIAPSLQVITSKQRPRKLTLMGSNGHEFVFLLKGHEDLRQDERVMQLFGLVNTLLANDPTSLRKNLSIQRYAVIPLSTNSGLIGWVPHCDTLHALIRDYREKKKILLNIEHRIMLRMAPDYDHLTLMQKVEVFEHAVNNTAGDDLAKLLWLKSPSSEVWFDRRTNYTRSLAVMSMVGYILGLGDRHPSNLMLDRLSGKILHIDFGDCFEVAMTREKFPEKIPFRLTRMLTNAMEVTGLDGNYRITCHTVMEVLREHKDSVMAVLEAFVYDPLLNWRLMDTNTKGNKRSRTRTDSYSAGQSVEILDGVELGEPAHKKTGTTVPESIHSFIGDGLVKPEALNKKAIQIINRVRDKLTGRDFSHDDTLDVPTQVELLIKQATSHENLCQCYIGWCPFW
PI3K-γ, sequence (P48736 whole entry, species assumed): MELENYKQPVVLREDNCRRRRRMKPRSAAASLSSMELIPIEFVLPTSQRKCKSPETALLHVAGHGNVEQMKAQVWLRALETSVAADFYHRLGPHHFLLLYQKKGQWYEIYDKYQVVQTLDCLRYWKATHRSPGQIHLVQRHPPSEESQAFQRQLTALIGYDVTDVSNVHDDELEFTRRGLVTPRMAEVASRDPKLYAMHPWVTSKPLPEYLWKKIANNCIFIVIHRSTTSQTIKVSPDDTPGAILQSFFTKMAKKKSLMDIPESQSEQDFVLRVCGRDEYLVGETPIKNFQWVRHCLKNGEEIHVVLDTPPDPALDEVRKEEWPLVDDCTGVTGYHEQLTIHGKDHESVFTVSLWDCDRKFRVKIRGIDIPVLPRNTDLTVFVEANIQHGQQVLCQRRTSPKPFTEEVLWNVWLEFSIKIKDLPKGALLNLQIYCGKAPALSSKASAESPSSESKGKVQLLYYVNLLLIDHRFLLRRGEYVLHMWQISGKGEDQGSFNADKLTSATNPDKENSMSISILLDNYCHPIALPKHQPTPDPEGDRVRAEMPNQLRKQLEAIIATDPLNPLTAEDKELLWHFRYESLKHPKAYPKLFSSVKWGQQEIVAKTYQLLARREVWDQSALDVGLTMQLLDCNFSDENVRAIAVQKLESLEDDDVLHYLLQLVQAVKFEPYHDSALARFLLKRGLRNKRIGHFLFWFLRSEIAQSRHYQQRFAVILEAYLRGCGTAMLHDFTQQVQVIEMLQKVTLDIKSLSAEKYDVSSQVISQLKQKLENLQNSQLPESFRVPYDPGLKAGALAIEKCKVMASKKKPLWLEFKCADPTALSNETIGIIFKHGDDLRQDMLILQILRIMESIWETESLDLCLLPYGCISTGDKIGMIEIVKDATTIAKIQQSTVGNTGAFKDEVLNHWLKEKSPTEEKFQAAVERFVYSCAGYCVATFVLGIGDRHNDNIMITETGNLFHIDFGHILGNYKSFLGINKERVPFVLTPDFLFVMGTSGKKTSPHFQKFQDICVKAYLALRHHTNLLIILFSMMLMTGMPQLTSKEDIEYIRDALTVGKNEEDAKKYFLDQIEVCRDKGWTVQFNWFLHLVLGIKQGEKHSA
PI3K-α, sequence (P42336 whole entry, species assumed): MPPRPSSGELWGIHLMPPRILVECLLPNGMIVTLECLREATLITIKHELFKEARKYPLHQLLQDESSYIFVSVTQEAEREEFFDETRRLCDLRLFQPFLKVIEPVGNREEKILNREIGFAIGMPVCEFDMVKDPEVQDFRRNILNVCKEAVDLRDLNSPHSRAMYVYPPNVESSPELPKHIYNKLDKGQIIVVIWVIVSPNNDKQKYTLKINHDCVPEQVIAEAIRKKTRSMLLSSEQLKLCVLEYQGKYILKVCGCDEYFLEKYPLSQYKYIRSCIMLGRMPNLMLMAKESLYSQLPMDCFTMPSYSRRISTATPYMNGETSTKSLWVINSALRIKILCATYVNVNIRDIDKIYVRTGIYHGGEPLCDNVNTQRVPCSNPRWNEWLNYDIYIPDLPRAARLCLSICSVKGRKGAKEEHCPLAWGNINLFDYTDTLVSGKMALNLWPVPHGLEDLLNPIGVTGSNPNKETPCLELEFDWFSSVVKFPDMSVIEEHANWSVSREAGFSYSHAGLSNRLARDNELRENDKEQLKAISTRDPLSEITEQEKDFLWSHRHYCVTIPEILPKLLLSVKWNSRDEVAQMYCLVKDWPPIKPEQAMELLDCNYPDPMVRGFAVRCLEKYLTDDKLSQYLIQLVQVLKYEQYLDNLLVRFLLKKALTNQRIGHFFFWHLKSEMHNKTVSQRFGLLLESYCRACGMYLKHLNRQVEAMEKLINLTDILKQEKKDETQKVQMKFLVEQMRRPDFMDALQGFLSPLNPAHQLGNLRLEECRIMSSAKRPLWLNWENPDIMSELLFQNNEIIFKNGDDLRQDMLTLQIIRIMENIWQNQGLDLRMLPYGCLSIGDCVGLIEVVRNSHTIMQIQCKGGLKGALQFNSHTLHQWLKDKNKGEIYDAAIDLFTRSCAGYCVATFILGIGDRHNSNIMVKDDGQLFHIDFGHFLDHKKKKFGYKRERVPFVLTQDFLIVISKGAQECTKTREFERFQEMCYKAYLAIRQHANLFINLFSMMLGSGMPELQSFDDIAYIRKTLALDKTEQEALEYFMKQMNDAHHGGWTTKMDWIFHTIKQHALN
PI3K-α, sequence (P27986 whole entry partner, species assumed): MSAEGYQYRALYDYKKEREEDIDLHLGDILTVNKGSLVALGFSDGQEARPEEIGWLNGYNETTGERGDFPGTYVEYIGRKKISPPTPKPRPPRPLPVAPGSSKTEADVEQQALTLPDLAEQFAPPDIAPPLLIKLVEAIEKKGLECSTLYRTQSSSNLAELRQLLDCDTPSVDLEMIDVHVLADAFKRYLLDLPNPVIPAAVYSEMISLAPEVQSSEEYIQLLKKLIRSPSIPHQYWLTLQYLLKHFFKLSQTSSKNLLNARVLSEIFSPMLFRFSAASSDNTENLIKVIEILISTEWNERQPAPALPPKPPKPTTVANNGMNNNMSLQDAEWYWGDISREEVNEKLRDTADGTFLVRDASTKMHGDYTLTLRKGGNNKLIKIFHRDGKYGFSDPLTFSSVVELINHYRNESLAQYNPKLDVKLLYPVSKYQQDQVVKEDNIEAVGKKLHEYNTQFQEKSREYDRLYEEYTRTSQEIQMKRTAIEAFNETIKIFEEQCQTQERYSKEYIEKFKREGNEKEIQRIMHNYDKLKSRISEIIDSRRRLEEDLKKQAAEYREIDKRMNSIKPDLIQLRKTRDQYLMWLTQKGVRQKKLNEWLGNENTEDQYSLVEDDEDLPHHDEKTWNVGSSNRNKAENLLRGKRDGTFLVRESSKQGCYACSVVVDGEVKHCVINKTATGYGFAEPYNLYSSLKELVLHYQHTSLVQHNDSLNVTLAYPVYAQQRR

Turning to `O=C(NCCO)Nc1ccc(-c2nc(Nc3ccc(N4CCNCC4)cc3)nc(N3CC4CCC(C3)O4)n2)cc1` [Example 328, 1-(2-hydroxyethyl)-3-(4-{4-(8-oxa-3-azabicyclo[3.2.1]oct-3-yl)-6-[(4-piperazin-1-ylphenyl)amino]-1,3,5-triazin-2-yl}phenyl)urea], the IC50 on Human mTOR (FLAG-TOR) came out at 4.6 nM; on PI3K-α, 261 nM; on PI3K-γ (read-out: IC50 PI3Kγ), 14000 nM; in experiment [1] it was 1500 nM.
For the molecule `NC(=O)c1ccc(NC(=O)Nc2ccc(-c3nc(Nc4ccc(N5CCNCC5)cc4)nc(N4CC5CCC(C4)O5)n3)cc2)cc1` [Example 329, 4-{[(4-{4-(8-oxa-3-azabicyclo[3.2.1]oct-3-yl)-6-[(4-piperazin-1-ylphenyl)amino]-1,3,5-triazin-2-yl}phenyl)carbamoyl]amino}benzamide], the IC50 at Human mTOR (FLAG-TOR) was 0.68 nM; at PI3K-α, 9.5 nM; at PI3K-α (listed as 358), 9 nM; on PI3K-γ (read-out: IC50 PI3Kγ) it was 385 nM; on PI3K-γ (read-out: IC50 PI3Kγ, listed as 358), 363 nM; in experiment [1] it was 5900 nM.
For the molecule `O=C(Nc1ccccc1)Nc1ccc(-c2nc(Nc3ccc(N4CCNCC4)cc3)nc(N3CC4CCC(C3)O4)n2)cc1` [Example 330, 1-(4-{4-(8-oxa-3-azabicyclo[3.2.1]oct-3-yl)-6-[(4-piperazin-1-ylphenyl)amino]-1,3,5-triazin-2-yl}phenyl)-3-phenylurea], the IC50 on Human mTOR (FLAG-TOR) was 3.3 nM and 3.4 nM; on PI3K-α it was 42 nM; at PI3K-γ (read-out: IC50 PI3Kγ), 827 nM; in experiment [1], 260 nM.
Consider `CN(C)CC(=O)Nc1ccc(NC(=O)Nc2ccc(-c3nc(N4CC5CCC(C4)O5)nc(N4CC5CCC(C4)O5)n3)cc2)cc1` [Example 352, N-[4-({[4-(4,6-di-8-oxa-3-azabicyclo[3.2.1]oct-3-yl-1,3,5-triazin-2-yl)phenyl]carbamoyl}amino)phenyl]-N2,N2-dimethylglycinnamide], for which the IC50 at Human mTOR (FLAG-TOR) is 0.24 nM; at PI3K-α, 13.5 nM; on PI3K-γ (read-out: IC50 PI3Kγ) it was 732 nM; in experiment [1] it was < 0.8 nM.
Taken in the same sequence, the figures for `O=C(CN1CCCC1)Nc1ccc(NC(=O)Nc2ccc(-c3nc(N4CC5CCC(C4)O5)nc(N4CC5CCC(C4)O5)n3)cc2)cc1` [Example 353, N-[4-({[4-(4,6-di-8-oxa-3-azabicyclo[3.2.1]oct-3-yl-1,3,5-triazin-2-yl)phenyl]carbamoyl}amino)phenyl]-2-pyrrolidin-1-ylacetamide] were 0.22 nM, 8.5 nM, 501 nM and < 0.8 nM.
Consider `CCNC(=O)Nc1ccc(-c2nc(NC3CCNCC3)nc(N3C4CCC3COC4)n2)cc1` [Example 360, 1-(4-(4-(3-oxa-8-azabicyclo[3.2.1]octan-8-yl)-6-(piperidin-4-ylamino)-1,3,5-triazin-2-yl)phenyl)-3-ethylurea], for which the IC50 was 82 nM at Human mTOR (FLAG-TOR), 6670 nM at PI3K-α, > 10000 nM at PI3K-γ and 10000 nM in experiment [1].
Consider `O=C(Nc1ccc(CN2CCNCC2)cc1)Nc1ccc(-c2nc(N3C4CCC3COC4)nc(N3C4CCC3COC4)n2)cc1` [Example 366, 1-(4-(4,6-di(3-oxa-8-azabicyclo[3.2.1]octan-8-yl)-1,3,5-triazin-2-yl)phenyl)-3-(4-(piperazin-1-ylmethyl)phenyl)urea], for which the IC50 on Human mTOR (FLAG-TOR) turned out to be 1.1 nM; on PI3K-α, 585 nM; on PI3K-γ (read-out: IC50 PI3Kγ), 3000 nM; in experiment [1], 2.8 nM.
For `NCc1ccc(NC(=O)Nc2ccc(-c3nc(N4C5CCC4COC5)nc(N4C5CCC4COC5)n3)cc2)cc1` [Example 368, 1-(4-(aminomethyl)phenyl)-3-(4-(4,6-di(3-oxa-8-azabicyclo[3.2.1]octan-8-yl)-1,3,5-triazin-2-yl)phenyl)urea] the same measures were 0.68 nM, 109 nM, 1940 nM and 0.7 nM.
Taken in the same sequence, the figures for `O=C(Nc1ccc(CN2CCCC2)cc1)Nc1ccc(-c2nc(N3C4CCC3COC4)nc(N3C4CCC3COC4)n2)cc1` [Example 369, 1-(4-(4,6-di(3-oxa-8-azabicyclo[3.2.1]octan-8-yl)-1,3,5-triazin-2-yl)phenyl)-3-(4-(pyrrolidin-1-ylmethyl)phenyl)urea] were 1.3 nM, 362 nM, 2560 nM and 3 nM.
Take `CN(C)CC(=O)Nc1ccc(NC(=O)Nc2ccc(-c3nc(N4C5CCC4COC5)nc(N4C5CCC4COC5)n3)cc2)cc1` [Example 373, N-(4-(3-(4-(4,6-di(3-oxa-8-azabicyclo[3.2.1]octan-8-yl)-1,3,5-triazin-2-yl)phenyl)ureido)phenyl)-2-(dimethylamino)acetamide]: the IC50 at Human mTOR (FLAG-TOR) is 0.16 nM; at PI3K-α, 70 nM; at PI3K-γ (read-out: IC50 PI3Kγ), 2960 nM; in experiment [1], 1 nM.
With `CN1CCN(CC(=O)Nc2ccc(NC(=O)Nc3ccc(-c4nc(N5C6CCC5COC6)nc(N5C6CCC5COC6)n4)cc3)cc2)CC1` [Example 374, N-(4-(3-(4-(4,6-di(3-oxa-8-azabicyclo[3.2.1]octan-8-yl)-1,3,5-triazin-2-yl)phenyl)ureido)phenyl)-2-(4-methylpiperazin-1-yl)acetamide], the IC50 is 0.14 nM at Human mTOR (FLAG-TOR), 64 nM on PI3K-α, 3920 nM at PI3K-γ (read-out: IC50 PI3Kγ) and < 0.8 nM in experiment [1].
For `O=C(CN1CCCC1)Nc1ccc(NC(=O)Nc2ccc(-c3nc(N4C5CCC4COC5)nc(N4C5CCC4COC5)n3)cc2)cc1` [Example 375, N-(4-(3-(4-(4,6-di(3-oxa-8-azabicyclo[3.2.1]octan-8-yl)-1,3,5-triazin-2-yl)phenyl)ureido)phenyl)-2-(pyrrolidin-1-yl)acetamide] the same measures were 0.15 nM, 44 nM, 2590 nM and < 0.8 nM.
`CC(C)Nc1nc(-c2ccc(NC(=O)Nc3cccnc3)cc2)nc(N2C3CCC2COC3)n1` [Example 376, 1-(4-(4-(3-oxa-8-azabicyclo[3.2.1]octan-8-yl)-6-(isopropylamino)-1,3,5-triazin-2-yl)phenyl)-3-(pyridin-3-yl)urea]: the IC50 on Human mTOR (FLAG-TOR) is 2.3 nM; at PI3K-α, 2600 nM; on PI3K-γ it was > 10000 nM; in experiment [1], 50 nM.
In the case of `CC(C)Nc1nc(-c2ccc(NC(=O)Nc3ccncc3)cc2)nc(N2C3CCC2COC3)n1` [Example 377, 1-(4-(4-(3-oxa-8-azabicyclo[3.2.1]octan-8-yl)-6-(isopropylamino)-1,3,5-triazin-2-yl)phenyl)-3-(pyridin-4-yl)urea], the IC50 came to 3.9 nM at Human mTOR (FLAG-TOR), 2610 nM on PI3K-α, 4720 nM at PI3K-γ (read-out: IC50 PI3Kγ) and 90 nM in experiment [1].
Taken in the same sequence, the figures for `CC(C)Nc1nc(-c2ccc(NC(=O)Nc3ccc(CN4CCN(C)CC4)cc3)cc2)nc(N2C3CCC2COC3)n1` [Example 379, 1-(4-(4-(3-oxa-8-azabicyclo[3.2.1]octan-8-yl)-6-(isopropylamino)-1,3,5-triazin-2-yl)phenyl)-3-(4-((4-methylpiperazin-1-yl)methyl)phenyl)urea] were 7.3 nM, 4750 nM, 5260 nM and 140 nM.
For `CC(C)Nc1nc(-c2ccc(NC(=O)Nc3ccc(CN4CCNCC4)cc3)cc2)nc(N2C3CCC2COC3)n1` [Example 380, 1-(4-(4-(3-oxa-8-azabicyclo[3.2.1]octan-8-yl)-6-(isopropylamino)-1,3,5-triazin-2-yl)phenyl)-3-(4-(piperazin-1-ylmethyl)phenyl)urea] the same measures were 5.1 nM, 3340 nM, 3560 nM and 300 nM.
For `CC(C)Nc1nc(-c2ccc(NC(=O)Nc3ccc(CN(C)C)cc3)cc2)nc(N2C3CCC2COC3)n1` [Example 381, 1-(4-(4-(3-oxa-8-azabicyclo[3.2.1]octan-8-yl)-6-(isopropylamino)-1,3,5-triazin-2-yl)phenyl)-3-(4-((dimethylamino)methyl)phenyl)urea] the same measures were 5.9 nM, 2960 nM, 5400 nM and 140 nM.
With `CC(C)Nc1nc(-c2ccc(NC(=O)Nc3ccc(CN)cc3)cc2)nc(N2C3CCC2COC3)n1` [Example 382, 1-(4-(4-(3-oxa-8-azabicyclo[3.2.1]octan-8-yl)-6-(isopropylamino)-1,3,5-triazin-2-yl)phenyl)-3-(4-(aminomethyl)phenyl)urea], the IC50 on Human mTOR (FLAG-TOR) was 4.5 nM; at PI3K-α it was 522 nM; on PI3K-γ (read-out: IC50 PI3Kγ), 4310 nM; in experiment [1], 48 nM.
For `CC(C)Nc1nc(-c2ccc(NC(=O)Nc3ccc(CN4CCCC4)cc3)cc2)nc(N2C3CCC2COC3)n1` [Example 383, 1-(4-(4-(3-oxa-8-azabicyclo[3.2.1]octan-8-yl)-6-(isopropylamino)-1,3,5-triazin-2-yl)phenyl)-3-(4-(pyrrolidin-1-ylmethyl)phenyl)urea] the same measures were 6.1 nM, 2980 nM, 3610 nM and 150 nM.
In the case of `CC(C)Nc1nc(-c2ccc(NC(=O)Nc3ccc(OCCN4CCCC4)cc3)cc2)nc(N2C3CCC2COC3)n1` [Example 384, 1-(4-(4-(3-oxa-8-azabicyclo[3.2.1]octan-8-yl)-6-(isopropylamino)-1,3,5-triazin-2-yl)phenyl)-3-(4-(2-(pyrrolidin-1-yl)ethoxy)phenyl)urea], the IC50 amounted to 6.4 nM at Human mTOR (FLAG-TOR), 4220 nM on PI3K-α, 5380 nM at PI3K-γ (read-out: IC50 PI3Kγ) and 50 nM in experiment [1].
